Holding throughout (assay): growth of human tumour cells (NCI), 48 h
Assay [1] relates to ACHN renal.
For assay [2], the system named is HCT-116 colon.
Assay [3] deals with MALME-3M melanoma.
Assay [4] has as its system NCI-H226 lung.
Assay [5] relates to NCI-H23 lung.
Assay [6] relates to OVCAR-5 ovarian.
Assay [7] concerns SF-295 CNS.
For assay [8], the system named is SK-MEL-28 melanoma.
Assay [9] relates to SR leukemia.
In assay [10] the test system is SW-620 colon.

SMILES strings stand for the structures.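 Following 48 hours of exposure in 96-well plates, responses at five concentrations were used to interpolate endpoints linearly. GI50: concentration for 50% inhibition of growth. At the TGI there is no net growth.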 Bounds are passed on as bounds.

Consider `O=C(CCc1nnc2s/c(=C\c3ccccc3)c(=O)n12)Nc1cc(Cl)ccc1Cl`, for which the TGI in [1] is above 100 µM; in [2] it was 66.9 µM; in assay [3] it was above 100 µM; in assay [4], above 100 µM; in [5] it was above 100 µM; in assay [6], above 100 µM. For the same compound, the TGI in [7] was above 100 µM; in assay [8] it was above 100 µM; in assay [9], above 100 µM; in [10] it was 23.7 µM.

Regarding `CN(C)CC(C(=O)c1ccccc1)c1ccccc1` (configuration not stated), the GI50 in [1] is 1.36 µM; in [2], 1.03 µM; in [3], 1.69 µM; in [4], 2.42 µM; in [5], 2.95 µM; in assay [6] it was 5.93 µM. For the same compound, the GI50 in assay [7] is 4.52 µM; in [8], 4.13 µM; in assay [9], 2.28 µM; in [10] it was 0.396 µM. Also, the TGI in assay [1] stood at 2.65 µM; in assay [2] it was 2.2 µM; in [3], 3.62 µM; in [4], 7.79 µM; in assay [5] it was 12.7 µM; in assay [6], 16.8 µM. Also, the TGI was 18.2 µM in assay [7], 13.6 µM in [8], 7.51 µM in assay [9] and 1.57 µM in assay [10].

Turning to `COC(=O)[C@]12CC[C@@H](C)[C@H](C)[C@@H]1C1=CC[C@@H]3[C@@]4(C)C[C@@H](OC(=O)c5ccco5)[C@H](O)[C@@](C)(CO)[C@@H]4[C@H](O)C[C@@]3(C)[C@]1(C)CC2`, the GI50 is 2.76 µM in assay [1]; 1.88 µM in [2]; 2.15 µM in [3]; 2.3 µM in assay [4]; 2.42 µM in assay [5]; 2.13 µM in [6]. For the same compound, the GI50 was 1.84 µM in [7], 2.17 µM in [8], 1.99 µM in assay [9] and 1.79 µM in assay [10]. Also, the TGI in assay [1] came out at 7.69 µM; in [2], 3.41 µM; in [3], 4.3 µM; in [4] it was 6.05 µM; in [5] it was 6.66 µM; in assay [6], 5.51 µM. The TGI stood at 3.87 µM in [7], 4.71 µM in [8], 4.68 µM in [9] and 3.54 µM in assay [10].

With `COc1cccc(Nc2nc(NNC(=O)Cc3ccccc3)nc(NNC(=O)c3ccncc3)n2)c1`, the TGI in [1], in assay [2], in assay [3], in [4], in assay [5] and in [6] was above 100 µM throughout. Also, the TGI in assay [7], in assay [8], in [9] and in assay [10] was above 100 µM throughout. For the same compound, the GI50 in assay [3] and in assay [5] was above 100 µM each time.

In the case of `Cc1cccc(CN(C)c2ccc(CO)c(Cl)c2)c1`, the GI50 in [1] is 32.7 µM; in [2], 0.549 µM; in assay [3] it was 19.5 µM; in assay [4], 0.123 µM; in assay [5], 14.6 µM; in [6], 0.881 µM. The GI50 was 4.87 µM in [7], 19.3 µM in assay [8], 24.7 µM in assay [9] and 7.18 µM in assay [10]. In addition, the TGI in assay [1] was above 100 µM; in assay [2] it was 12.3 µM; in assay [3], 49.8 µM; in assay [4], 0.279 µM; in assay [5], above 73.1 µM; in [6], 4.87 µM. The TGI in assay [7] was 46.8 µM; in assay [8], above 76.1 µM; in assay [9] it was above 73.8 µM; in assay [10] it was above 100 µM.

For `COc1c(OC(C)=O)cc2c(OC(C)=O)c1CC(C)CC(OC)C(O)C(C)/C=C(\C)C(OC(N)=O)C(OC)/C=C\C=C(/C)C(=O)N2` (configuration not stated), the TGI in [1], in assay [2], in assay [3], in [4], in assay [5] and in assay [6] was above 100 µM throughout. Besides, the TGI in assay [7] was above 100 µM; in assay [8], above 100 µM; in assay [9], above 72.6 µM; in [10], above 100 µM.

With `N#Cc1ccc(Oc2nccc(-c3c(-c4ccc(F)cc4)ncn3C3CCNCC3)n2)cc1`, the GI50 in assay [1] is above 23.7 µM; in assay [2], 5.45 µM; in assay [3] it was above 16.6 µM; in [4], above 25 µM; in assay [5], above 25 µM; in assay [6], above 25 µM. For the same compound, the GI50 in assay [7] is 16.6 µM; in [8], above 25 µM; in assay [9], 4.54 µM; in assay [10], above 15.4 µM. Further, the TGI in assay [1] is above 25 µM; in [2] it was above 13.5 µM; in assay [3], above 25 µM; in [4], above 25 µM; in assay [5], above 25 µM; in [6] it was above 25 µM. The TGI in [7] is above 25 µM; in [8], above 25 µM; in assay [9], 11.3 µM; in assay [10] it was above 25 µM.

Turning to `C[N+](C)(C)CCOP(=O)(O)OP(=O)([O-])OCC1CCC(n2ccc(N)nc2=O)O1` (configuration not stated), the TGI in [1], in assay [2], in assay [3], in [4], in assay [5] and in assay [6] was above 100 µM throughout. Also, the TGI in [7], in assay [8], in [9] and in assay [10] was above 100 µM in each case.

As to `O=C(CCCn1c2c(sc3ncccc32)c(=O)n2nnc(-c3ccccc3)c12)NCCc1cnc[nH]1`, the GI50 in assay [1] is 15.3 µM; in assay [2], 0.378 µM; in assay [3] it was 18.1 µM; in assay [4], 11.7 µM; in assay [5], 14.5 µM; in assay [6], 11.6 µM. In addition, the GI50 in [7] was 1.75 µM; in [8], 17 µM; in [9], 2.52 µM; in assay [10], 0.331 µM. In addition, the TGI in assay [1] was 31 µM; in assay [2], 10.1 µM; in [3], 37 µM; in [4], 29.3 µM; in assay [5] it was 32.2 µM; in [6], 32.7 µM. Also, the TGI in assay [7] stood at 16.3 µM; in assay [8] it was 35 µM; in [9], 6.14 µM; in [10], 14.4 µM.

`CCSC1(SCC)CCN(C=NC(C)(C)C)C1`: the TGI in assay [1], in [2], in assay [3], in assay [4], in assay [5] and in [6] was above 100 µM in each case. The TGI in assay [7] was above 100 µM; in assay [8], above 100 µM; in assay [9], above 100 µM; in assay [10] it was 53.2 µM.

As to `OC(c1ccccc1)(c1ccccc1)c1ccccn1`, the TGI in assay [1], in assay [2], in assay [3], in assay [4], in assay [5] and in assay [6] was above 100 µM in each case. In addition, the TGI in assay [7], in assay [8], in assay [9] and in assay [10] was above 100 µM throughout.

In the case of `COc1cc(/C=C/C(=O)C(=Cc2ccc(F)c(F)c2)C(=O)/C=C/c2ccc(O)c(OC)c2)ccc1O`, the GI50 was 3.27 µM in [1]; 1.79 µM in assay [2]; 5.61 µM in assay [3]; 3.39 µM in assay [4]; 2.8 µM in assay [5]; 3.25 µM in [6]. For the same compound, the GI50 was 3.63 µM in assay [7], 1.87 µM in assay [8], 2.83 µM in assay [9] and 1.84 µM in [10]. Also, the TGI in assay [1] was 19.9 µM; in assay [2] it was 4.01 µM; in assay [3], 37.3 µM; in assay [4], 12.1 µM; in [5] it was 8.56 µM; in [6], 14.3 µM. Besides, the TGI in assay [7] stood at 25.1 µM; in [8], 3.8 µM; in assay [9], 9.2 µM; in [10], 3.62 µM.

In the case of `CCc1cccc(C(C)CC)c1N=C(NC(=O)c1ccccc1C(=O)NC(=Nc1c(CC)cccc1C(C)CC)SC)SC` (configuration not stated), the TGI in [1] was above 100 µM; in assay [2], above 100 µM; in [3] it was above 100 µM; in [4], 57.1 µM; in [5], above 100 µM; in assay [6], above 100 µM. Also, the TGI in assay [7], in assay [8], in [9] and in assay [10] was above 100 µM throughout.

In the case of `CCC(=O)C1=C(OC(C)=O)C2Cc3c(n(C)c4ccccc34)C(C1)N2C` (configuration not stated), the TGI was above 100 µM in assay [1]; 85.1 µM in [2]; above 100 µM in assay [3]; above 100 µM in assay [4]; above 100 µM in [5]; above 100 µM in [6]. For the same compound, the TGI in [7] is above 100 µM; in assay [8] it was above 100 µM; in assay [9], above 100 µM; in assay [10], 90.1 µM.
